Results as given in US7045528B2, “Benzofused heterozryl amide derivatives of thienopyridines useful as therapeutic agents, pharmaceutical compositions including the same, and methods for their use” (Agouron Pharmaceuticals, Inc., priority 2002, dated 2006).

How the values were obtained:
Huvec = assay: bFGF Huvec proliferation; format: cell-based, human; details: Homo sapiens, HUVEC
PDGFRβ = target: T1, PDGFRβ (Homo sapiens, UniProt P09619); assay: PAE-PDGFRβ phosphorylation in PAE-PDGFRB cells assay; format: cell-based; details: PAE cells overexpressing human PDGFRβ, PDGF-BB stimulated; read-out: PAE PDGFR autophos IC50 (nM) AVG
T1 construct: expressed in transfected cells; host or cells: porcine aorta endothelial (PAE)-PDGFRβ cells
Method: PAE-PDGFRβ Phosphorylation in PAE-PDGFRB Cells Assay
This assay determines the ability of a test compound to inhibit the autophosphorylation of PDGFRβ in porcine aorta endothelial (PAE)-PDGFRβ cells. PAE cells that overexpress human PDGFRβ were used in this assay. The cells were cultured in Ham's F12 media supplemented with 10% fetal bovine serum (FBS) and 400 ug/ml G418. Twenty thousands cells were seeded in each well of a 96-well plate in 50 μL of growth media and allowed to attach for 6 hours at 37° C. Cells were then exposed to the starvation media (Ham's F12 media supplemented with 0.1% FBS) for 16 hours. After the starvation period was over, 10 μL of test agent in 5% DMSO in starvation media were added to the test wells and 10 μL of the vehicle (5% DMSO in starvation media) were added into the control wells. The final DMSO concentration in each well was 0.5%. Plates were incubated at 37° C. for 1 hour and the cells were then stimulated with 1 μg/mL PDGF-BB (R & D System) in the presence of 2 mM Na3VO4 for 8 minutes. The cells were washed once with 1 mm Na3VO4 in HBSS and lysed by adding 50 μL per well of lysis buffer. One hundred μL of dilution buffer were then added to each well and the diluted cell lysate was transferred to a 96-well goat ant-rabbit coated plate (Pierce), which was pre-coated with Rabbit anti Human PDGFRβ antibody (Santa Cruz). The plates were incubated at room temperature for 2 hours and washed seven times with 1% Tween 20 in PBS. HRP-PY20 (Santa Cruz) was diluted and added to the plate for a 30-minute incubation. Plates were then washed again and TMB peroxidase substrate (Kirkegaard & Perry) was added for a 10-minute incubation. One hundred μL of 0.09 N H2SO4 was added into each well of the 96-well plate to stop the reaction. Phosphorylation status was assessed by spectrophotometer reading at 450 nm. IC50 values were calculated by curve fitting using a four-parameter analysis.

[1] = test system: human umbilical vein endothelial cells (HUVEC); assay: HUVEC+VEGF proliferation assay; format: cell-based; details: Homo sapiens, HUVEC; VEGF 6 ng/mL, 72 h, MTT
Method: HUVEC+VEGF Proliferation Assay
This assay determines the ability of a test compound to inhibit the growth factor-stimulated proliferation of human umbilical vein endothelial cells (“HUVEC”). HUVEC cells (passage 3–4; Clonetics, Corp.) were thawed into EGM2 culture medium (Clonetics Corp) in T75 flasks. Fresh EGM2 medium was added to the flasks 24 hours later. Four or five days later, cells were exposed to another culture medium (F12K medium supplemented with 10% fetal bovine serum (FBS), 60 μg/mL endothelial cell growth supplement (ECGS), and 0.1 mg/mL heparin). Exponentially-growing HUVEC cells were used in experiments thereafter. Ten to twelve thousand HUVEC cells were plated in 96-well dishes in 100 μl of rich, culture medium (described above). The cells were allowed to attach for 24 hours in this medium. The medium was then removed by aspiration and 105 μl of starvation media (F12K+1% FBS) was added to each well. After 24 hours, 15 μl of test agent dissolved in 1% DMSO in starvation medium or this vehicle alone was added into each treatment well; the final DMSO concentration was 0.1%. One hour later, 30 μl of VEGF (30 ng/mL) in starvation media was added to all wells except those containing untreated controls; the final VEGF concentration was 6 ng/mL. Cellular proliferation was quantified 72 hours later by MTT dye reduction, at which time cells were exposed for 4 hours MTT (Promega Corp.). Dye reduction was stopped by addition of a stop solution (Promega Corp.) and absorbance at 595 nm was determined on a 96-well spectrophotometer plate reader.

[2] = target: T2, unphosphorylated VEGF-R2Δ50 (FLVK) (Homo sapiens, UniProt P35968, DEL940-989/E990V); assay: VEGF-R2 coupled spectrophotometric assay, unphosphorylated VEGF-R2Δ50 (FLVK); format: biochemical; details: unphosphorylated VEGF-R2Δ50; for inhibition at 0.05 µM: 50 nM compound, read-out: FLVK (% inh @ 50 nM)
T2 construct: VEGF-R2Δ50 contains residues 806–939 and 990–1171; made in house; host or cells: baculovirus/insect cell system
Method in brief: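 Baculovirus-expressed human VEGF-R2Δ50 (kinase insert partly deleted, E990V), unphosphorylated form; ADP production coupled via PK/LDH to NADH oxidation, read at 340 nm. 20 mM poly(E4Y1), 3 mM ATP, 60 mM MgCl2, 2 mM MnCl2, 200 mM HEPES pH 7.5; 5–40 nM enzyme. Ki from Morrison tight-binding fit.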

T2 sequence (P35968 with tags, fused parts or gaps DEL940-989/E990V limits assumed): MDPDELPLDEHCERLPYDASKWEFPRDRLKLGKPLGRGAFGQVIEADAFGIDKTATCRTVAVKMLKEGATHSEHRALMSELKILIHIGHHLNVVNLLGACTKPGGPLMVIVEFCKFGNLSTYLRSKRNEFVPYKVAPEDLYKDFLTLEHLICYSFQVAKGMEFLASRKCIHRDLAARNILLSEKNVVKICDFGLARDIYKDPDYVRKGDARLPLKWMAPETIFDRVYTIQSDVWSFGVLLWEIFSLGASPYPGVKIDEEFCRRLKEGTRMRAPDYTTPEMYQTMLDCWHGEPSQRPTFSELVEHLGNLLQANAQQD
T1 sequence (P09619 33-1106): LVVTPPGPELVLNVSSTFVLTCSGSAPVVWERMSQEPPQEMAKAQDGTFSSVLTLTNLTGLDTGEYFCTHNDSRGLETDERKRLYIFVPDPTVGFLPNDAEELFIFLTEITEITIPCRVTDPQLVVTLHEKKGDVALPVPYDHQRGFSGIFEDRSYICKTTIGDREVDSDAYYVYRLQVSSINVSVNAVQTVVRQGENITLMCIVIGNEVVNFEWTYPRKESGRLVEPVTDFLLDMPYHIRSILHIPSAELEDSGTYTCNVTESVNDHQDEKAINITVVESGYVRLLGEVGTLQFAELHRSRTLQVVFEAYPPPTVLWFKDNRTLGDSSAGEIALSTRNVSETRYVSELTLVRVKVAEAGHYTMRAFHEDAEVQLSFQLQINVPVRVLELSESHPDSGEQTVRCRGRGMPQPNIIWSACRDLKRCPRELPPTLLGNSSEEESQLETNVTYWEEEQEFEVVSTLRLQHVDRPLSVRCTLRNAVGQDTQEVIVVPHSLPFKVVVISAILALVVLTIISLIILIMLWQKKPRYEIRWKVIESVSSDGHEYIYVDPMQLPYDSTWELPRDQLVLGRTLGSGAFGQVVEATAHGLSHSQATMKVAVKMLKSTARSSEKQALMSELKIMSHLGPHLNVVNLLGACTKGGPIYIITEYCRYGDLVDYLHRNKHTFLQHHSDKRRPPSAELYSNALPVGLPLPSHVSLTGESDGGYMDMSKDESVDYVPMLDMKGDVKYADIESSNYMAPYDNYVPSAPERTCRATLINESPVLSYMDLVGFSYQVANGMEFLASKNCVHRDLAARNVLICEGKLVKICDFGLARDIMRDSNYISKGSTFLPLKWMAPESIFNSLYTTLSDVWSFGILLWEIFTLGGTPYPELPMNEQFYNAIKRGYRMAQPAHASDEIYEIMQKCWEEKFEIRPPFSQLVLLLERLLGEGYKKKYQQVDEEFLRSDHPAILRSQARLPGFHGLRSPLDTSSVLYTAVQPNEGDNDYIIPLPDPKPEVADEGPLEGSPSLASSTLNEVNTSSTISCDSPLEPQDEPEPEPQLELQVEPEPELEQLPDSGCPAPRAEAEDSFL

With `Cc1sc2cc(Oc3ccnc4cc(-c5nc(CO)cs5)sc34)ccc2c1C(=O)NC1CC1` [Example 129] the IC50 (Huvec) was 100 nM, the IC50 (PDGFRβ) was 168 nM and the IC50 [1] was 0.219 nM. It also gave an inhibition at 0.05 µM [2] of 88% and a Ki [2] of 0.2 nM.
`CCCNC(=O)c1c(C)n(C)c2cc(Oc3ccnc4cc(C(=O)N5CCC[C@H]5CO)sc34)ccc12` [Example 58, 6-(2-[2-(S)Hydroxymethyl-pyrrolidine-1-carbonyl]thieno[3,2-b]pyridin-7-yloxy)-1,2-dimethyl-1H-indole-3-carboxylic acid propylamide] was tested, and the IC50 (Huvec) was 7830 nM, the IC50 (PDGFRβ) was 124 nM and the IC50 [1] was 3.65 nM. The inhibition at 0.05 µM [2] was 55% and the Ki [2] was 7.59 nM.
In the case of `Cc1oc2cc(Oc3ccnc4ccsc34)ccc2c1C(=O)Nc1nnc(-c2ccccc2)s1` [Example 106, 2-Methyl-6-(thieno[3,2-b]pyridin-7-yloxy)-benzofuran-3-carboxylic acid (5-phenyl-[1,3,4]thiadiazol-2-yl)-amide], the IC50 (Huvec) is reported as 638 nM, the IC50 [1] is reported as 10 nM and the inhibition at 0.05 µM [2] is reported as 98%.
Compound `CCc1oc2cc(Oc3ccnc4cc(C(=O)N5CC[C@@H](O)C5)sc34)ccc2c1C(=O)NC` [Example 95, 2-Ethyl-6-[2-(3-hydroxy-pyrrolidine-1-carbonyl)-thieno[3,2-b]pyridin-7-yloxy]-benzofuran-3-carboxylic acid methylamide] has an IC50 (Huvec) of 96 nM, an IC50 (PDGFRβ) of 235 nM and an IC50 [1] of 10 nM. For the same compound, the inhibition at 0.05 µM [2] was 89% and the Ki [2] was 0.848 nM.
`Cc1c(C(=O)NC2CC2)c2ccc(Oc3ccnc4cc(C(=O)N5CC[C@@H](O)C5)sc34)cc2n1C` [Example 53, 6-[2-((R)-3-Hydroxy-pyrrolidine-1-carbonyl)-thieno[3,2-b]pyridin-7-yloxy]-1,2-dimethyl-1H-indole-3-carboxylic acid cyclopropylamide] showed an IC50 (Huvec) of 7230 nM, an IC50 (PDGFRβ) of 229 nM and an IC50 [1] of 1.8 nM. It also gave an inhibition at 0.05 µM [2] of 93% and a Ki [2] of 1.07 nM.
For `CNC(=O)c1c(C)n(C)c2cc(Oc3ccnc4cc(-c5ccncc5)sc34)ccc12` [Example 38, 1,2-Dimethyl-6-(2-pyridin-4-yl-thieno[3,2-b]pyridin-7-yloxy)-1H-indole-3-carboxylic acid methylamide], the IC50 (Huvec) was 10000 nM, the IC50 (PDGFRβ) was 12.3 nM and the IC50 [1] was 27 nM. The inhibition at 0.05 µM [2] was 60% and the Ki [2] was 6.12 nM.
`COC[C@@H]1CCCN1C(=O)c1cc2nccc(Oc3ccc4c(C(=O)NC5CC5)c(C)sc4c3)c2s1` [Example 120, 6-[(2-{[(2S)-2-(Methoxymethyl)pyrrolidin-1-yl]carbonyl}thieno[3,2-b]pyridin-7-yl)oxy]-2-methylbenzo[b]thiophene-3-carboxylic acid cyclopropylamide] showed an IC50 (Huvec) of 489 nM, an IC50 (PDGFRβ) of 405 nM and an IC50 [1] of 0.491 nM. For the same compound, the inhibition at 0.05 µM [2] was 93% and the Ki [2] was 0.6 nM.
`CCc1oc2cc(Oc3ccnc4cc(C(=O)N5CC[C@@H](OC)C5)sc34)ccc2c1C(=O)NC` [Example 14, 6-(2-[3-methoxypyrrolidine-1-carbonyl]thieno[3,2-b]pyridin-7-yloxy)-2-ethylbenzofuran-3-carboxylic acid methylamide] was tested, and the IC50 (Huvec) was 287 nM, the IC50 [1] was 9.4 nM and the inhibition at 0.05 µM [2] was 81%. For the same compound, the Ki [2] was 1.46 nM.
For `Cc1sc2cc(Oc3ccnc4cc(-c5nc(CO)cs5)sc34)ccc2c1C(=O)NCC1CC1` [Example 130], the IC50 (Huvec) was 100 nM, the IC50 (PDGFRβ) was 335 nM and the IC50 [1] was 0.49 nM. It also gave an inhibition at 0.05 µM [2] of 95% and a Ki [2] of 0.39 nM.
In the case of `CCCNC(=O)c1c(C)n(C)c2cc(Oc3ccnc4cc(C(=O)N5CC[C@@H](O)C5)sc34)ccc12` [Example 59, 6-[2-(3-Hydroxy-pyrrolidine-1-carbonyl)-thieno[3,2-b]pyridin-7-yloxy]-1,2-dimethyl-3H-indole-3-carboxylic acid propylamide], the IC50 (Huvec) is reported as 1160 nM, the IC50 (PDGFRβ) is reported as 115 nM and the IC50 [1] is reported as 0.045 nM. For the same compound, the inhibition at 0.05 µM [2] was 81% and the Ki [2] was 1.38 nM.
`CNC(=O)c1c(C)n(C)c2cc(Oc3ccnc4cc(C(=O)N5CCC[C@H]5CO)sc34)ccc12` [Example 16, 6-[2-(2-Hydroxymethyl-pyrrolidine-1-carbonyl)-thieno[3,2-b]pyridin-7-yloxy]-1,2-dimethyl-1H-indole-3-carboxylic acid methylamide] gave an IC50 (Huvec) of 1000 nM, an IC50 [1] of 10 nM and an inhibition at 0.05 µM [2] of 46%. It also gave a Ki [2] of 8.14 nM.
With `CO[C@@H]1CCN(C(=O)c2cc3nccc(Oc4ccc5c(C(=O)NC6CC6)c(C)oc5c4)c3s2)C1` [Example 89, 6-[2-(3-Methoxypyrrolidine-1-carbonyl)-thieno[3,2-b]pyridin-7-yloxy]-2-methyl-benzofuran-3-carboxylic acid cyclopropylamide] the IC50 (Huvec) was 5.2 nM, the IC50 (PDGFRβ) was 250 nM and the inhibition at 0.05 µM [2] was 95%. For the same compound, the Ki [2] was 0.419 nM.
With `Cc1c(C(=O)NCCCO)c2ccc(Oc3ccnc4cc(C(=O)N5CC[C@@H](O)C5)sc34)cc2n1C` [Example 64, 6-[2-((R)-3-Hydroxy-pyrrolidine-1-carbonyl)-thieno[3,2-b]pyridin-7-yloxy]-1,2-dimethyl-1H-indole-3-carboxylic acid (3-hydroxy-propyl)-amide] the IC50 (Huvec) was 10000 nM, the IC50 [1] was 10 nM and the inhibition at 0.05 µM [2] was 64%. The Ki [2] was 11.8 nM.
For `CNC(=O)c1c(C)[nH]c2cc(Oc3ccnc4cc(C(=O)N5CC[C@@H](O)C5)sc34)ccc12` [Example 24, 6-[2-(3-Hydroxy-pyrrolidine-1-carbonyl)-thieno[3,2-b]pyridin-7-yloxy]-2-methyl-1H-indole-3-carboxylic acid methylamide], the IC50 (Huvec) was 10000 nM, the IC50 [1] was 32 nM and the inhibition at 0.05 µM [2] was 69%. For the same compound, the Ki [2] was 4.2 nM.
Work on `Cc1sc2cc(Oc3ccnc4cc(-c5nccn5C)sc34)ccc2c1C(=O)NCCCO` [Example 118, 2-Methyl-6-{[2-(1-methyl-1H-imidazol-2-yl)thieno[3,2-b]pyridin-7-yl]oxy}benzo[b]thiophene-3-carboxylic acid 3-hydroxypropylamide] yielded an IC50 (Huvec) of 736 nM, an IC50 [1] of 0.9 nM and an inhibition at 0.05 µM [2] of 84%. For the same compound, the Ki [2] was 1.2 nM.
`CCc1sc2cc(Oc3ccnc4cc(C(=O)N5CCC5)sc34)ccc2c1C(=O)NC` [Example 138, 6-{[2-(Azetidin-1-ylcarbonyl)thieno[3,2-b]pyridin-7-yl]oxy}-2-ethylbenzo[b]thiophene-3-carboxylic acid methylamide] showed an IC50 (PDGFRβ) of 110 nM, an IC50 [1] of 9.9 nM and an inhibition at 0.05 µM [2] of 85%. It also gave a Ki [2] of 0.78 nM.
`CNC(=O)c1c(C)n(C)c2cc(Oc3ccnc4cc(C(=O)N5CCC(CN)C5)sc34)ccc12` (stereo not drawn) [Example 45, 6-[2-(3-Aminomethyl-pyrrolidine-1-carbonyl)-thieno[3,2-b]pyridin-7-yloxy]-1,2-dimethyl-1H-indole-3-carboxylic acid methylamide] showed an IC50 (PDGFRβ) of 26.9 nM, an IC50 [1] of 10 nM and an inhibition at 0.05 µM [2] of 64%. It also gave a Ki [2] of 4.65 nM.
